Data from US10364226B2, “Pyridazinone compounds and uses thereof” (priority 2013, dated 2019).

How the values were obtained:
[1] = system: Influenza strain A549 A/WSN/33 (H1N1); assay: Influenza Antiviral Assay; assay type: cell-based, Influenza A virus; settings: Influenza A virus, A549, 20 h, neuraminidase fluorescence readout, read-out: % Inhibition
EN PA = EN PA (Influenza A virus, UniProt P15659); assay: EN PA FRET Inhibition Assay; assay type: biochemical; settings: read-out: Potency

| Compound | EC50 [1] [µM] | IC50 (EN PA) [µM] |
| --- | --- | --- |
| Cc1ccc(CNC(=O)c2nn(CC3(c4cccc(C(F)(F)F)c4)CCCC3)cc(O)c2=O)cc1 [Compound 524] | < 20 | 0.1 to 1 |
| COc1ccc(CNC(=O)c2nn(CC3(c4cccc(C(F)(F)F)c4)CCCC3)cc(O)c2=O)cc1 [Compound 525] | < 20 | 0.1 to 1 |
| NC(=O)c1nn(CC2(c3cccc(C(F)(F)F)c3)CCCC2)cc(O)c1=O [Compound 602] | < 20 | 0.1 to 1 |
| CNC(=O)c1nn(-c2ccccc2S(=O)(=O)c2ccccc2)cc(O)c1=O [Compound 603] | > 100 | ≥ 1 |
| CNC(=O)c1nn(CCc2ccccc2OC)cc(O)c1=O [Compound 604] | > 100 | ≥ 1 |
| O=C(NCc1ccccc1)c1nn(-c2ccccc2S(=O)(=O)c2ccccc2)cc(O)c1=O [Compound 605] | 20 to 100 | 0.1 to 1 |
| CNC(=O)c1nn(CCC2CCCCC2)cc(O)c1=O [Compound 606] | 20 to 100 | ≥ 1 |
| CNC(=O)c1nn(CC(C)(C)c2ccc(C)cc2)cc(O)c1=O [Compound 607] | < 20 | 0.1 to 1 |
| CNC(=O)c1nn(CC2(n3ccc4cccnc43)CCCC2)cc(O)c1=O [Compound 609] | < 20 | < 0.1 |
| CNC(=O)c1nn(-c2ccccc2-c2ccccc2OC2CCCC2)cc(O)c1=O [Compound 610] | 20 to 100 | 0.1 to 1 |
| CNC(=O)c1nn(-c2ccccc2-c2cccc(OC)c2)cc(O)c1=O [Compound 611] | > 100 | ≥ 1 |
| CNC(=O)c1nn(-c2ccccc2-c2cc(OC)ccc2Cl)cc(O)c1=O [Compound 612] | 20 to 100 | ≥ 1 |
| CNC(=O)c1nn(-c2ccccc2-c2ccc3[nH]ccc3c2)cc(O)c1=O [Compound 613] | > 100 | ≥ 1 |
| CNC(=O)c1nn(CCc2cccc3ccccc23)cc(O)c1=O [Compound 614] | 20 to 100 | 0.1 to 1 |
| CNC(=O)c1nn(CC2(c3cccc(C(F)(F)F)c3)CC2)cc(O)c1=O [Compound 621] | < 20 | 0.1 to 1 |
| CNC(=O)c1nn(CC2(n3cc(C)c4cccnc43)CCCC2)cc(O)c1=O [Compound 622] | < 20 | 0.1 to 1 |
| COc1cccc(CNC(=O)c2nn(CC3(c4cccc(C(F)(F)F)c4)CCCC3)cc(O)c2=O)c1 [Compound 624] | < 20 | 0.1 to 1 |
| O=C(NCc1ccc2c(c1)OCO2)c1nn(CC2(c3cccc(C(F)(F)F)c3)CCCC2)cc(O)c1=O [Compound 625] | < 20 | 0.1 to 1 |
| NC(=O)c1nn(CC2(c3cccc(C(F)(F)F)c3)CC2)cc(O)c1=O [Compound 626] | 20 to 100 | 0.1 to 1 |
| O=C(Nc1ccccc1)c1nn(CC2(c3ccccc3)CCCC2)cc(O)c1=O [Compound 639] | 20 to 100 | 0.1 to 1 |
| CNC(=O)c1nn(-c2ccccc2S(=O)(=O)c2cccc(Cl)c2)cc(O)c1=O [Compound 644] | > 100 | 0.1 to 1 |
| CNC(=O)c1nn(CC(C)(C)c2cccc(C(F)(F)F)c2)cc(O)c1=O [Compound 645] | < 20 | < 0.1 |
| Cn1cc(CNC(=O)c2nn(CC3(c4cccc(C(F)(F)F)c4)CCCC3)cc(O)c2=O)cn1 [Compound 646] | < 20 | < 0.1 |
| Cc1cc(CNC(=O)c2nn(CC3(c4cccc(C(F)(F)F)c4)CCCC3)cc(O)c2=O)[nH]n1 [Compound 648] | < 20 | < 0.1 |
| O=C(NCc1cnn(-c2ccc(F)cc2)c1)c1nn(CC2(c3cccc(C(F)(F)F)c3)CCCC2)cc(O)c1=O [Compound 649] | < 20 | < 0.1 |
| CCn1cc(CNC(=O)c2nn(CC3(c4cccc(C(F)(F)F)c4)CCCC3)cc(O)c2=O)cn1 [Compound 650] | < 20 | < 0.1 |
| CNC(=O)c1nn(Cc2ccccc2-c2ccccc2)cc(O)c1=O [Compound 654] | > 100 | 0.1 to 1 |
| Cc1ccc(C2(Cn3cc(O)c(=O)c(C(=O)O)n3)CC2)cc1 [Compound 655] | > 100 | < 0.1 |
